# From ChEMBL document CHEMBL4507319 (2021)
# What was measured:
# [1] = target: BDNF/NT-3 growth factors receptor (Homo sapiens) (UniProt Q16620); assay: TrkB(h) Eurofins kinase panel; settings: Compound concentration 1.0 uM
# [2] = target: Tyrosine-protein kinase JAK2 (Homo sapiens) (UniProt O60674); assay: JAK2(h) Eurofins kinase panel; settings: Compound concentration 1.0 uM
# [3] = target: Epithelial discoidin domain-containing receptor 1 (Homo sapiens) (UniProt Q08345); assay: DDR1(h) Eurofins kinase panel; settings: Compound concentration 1.0 uM
# [4] = target: Mitogen-activated protein kinase 8 (Homo sapiens) (UniProt P45983); assay: JNK1alpha1(h) Eurofins kinase panel; settings: Compound concentration 1.0 uM
# Ramos = assay: Ramos cell line Proliferation assay; assay type: functional, Homo sapiens; settings: time 3 day
# [5] = target: RAF proto-oncogene serine/threonine-protein kinase (Homo sapiens) (UniProt P04049); assay: c-RAF(h) Eurofins kinase panel; settings: Compound concentration 1.0 uM
# [6] = target: T1, Ephrin type-B receptor 2 (Homo sapiens) (UniProt P29323); assay: EphB2(h) Eurofins kinase panel; settings: Compound concentration 1.0 uM
# T1 sequence (whole entry): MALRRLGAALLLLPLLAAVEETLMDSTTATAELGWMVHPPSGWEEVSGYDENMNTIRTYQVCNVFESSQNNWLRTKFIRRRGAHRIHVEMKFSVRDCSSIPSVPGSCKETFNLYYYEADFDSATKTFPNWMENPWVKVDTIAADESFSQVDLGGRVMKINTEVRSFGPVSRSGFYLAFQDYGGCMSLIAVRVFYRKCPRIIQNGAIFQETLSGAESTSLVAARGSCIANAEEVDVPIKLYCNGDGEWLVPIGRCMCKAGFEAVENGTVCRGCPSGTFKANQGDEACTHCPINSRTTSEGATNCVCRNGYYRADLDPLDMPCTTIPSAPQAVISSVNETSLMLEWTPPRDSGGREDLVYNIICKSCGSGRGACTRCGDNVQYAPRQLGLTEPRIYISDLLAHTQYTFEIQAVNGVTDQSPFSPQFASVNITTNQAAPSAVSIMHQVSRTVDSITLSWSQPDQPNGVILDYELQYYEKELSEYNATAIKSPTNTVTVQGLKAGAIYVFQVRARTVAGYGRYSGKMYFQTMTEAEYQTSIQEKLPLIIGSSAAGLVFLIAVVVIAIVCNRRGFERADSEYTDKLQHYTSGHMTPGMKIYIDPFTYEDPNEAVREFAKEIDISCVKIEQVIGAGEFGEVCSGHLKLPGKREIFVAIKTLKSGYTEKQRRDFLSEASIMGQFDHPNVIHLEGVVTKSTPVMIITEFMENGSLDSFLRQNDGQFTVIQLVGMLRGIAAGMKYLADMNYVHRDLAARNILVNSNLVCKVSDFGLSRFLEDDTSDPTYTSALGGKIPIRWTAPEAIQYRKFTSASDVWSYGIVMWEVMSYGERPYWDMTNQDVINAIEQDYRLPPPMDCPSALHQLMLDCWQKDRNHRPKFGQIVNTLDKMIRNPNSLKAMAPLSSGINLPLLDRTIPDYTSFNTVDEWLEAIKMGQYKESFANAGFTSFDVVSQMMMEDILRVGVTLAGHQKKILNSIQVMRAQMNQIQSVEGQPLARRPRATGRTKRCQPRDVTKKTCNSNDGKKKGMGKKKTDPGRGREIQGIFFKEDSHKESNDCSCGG
# [7] = target: T2, cGMP-dependent protein kinase 1 (Homo sapiens) (UniProt Q13976); assay: PKG1alpha (h) Eurofins kinase panel; settings: Compound concentration 1.0 uM
# T2 sequence (whole entry): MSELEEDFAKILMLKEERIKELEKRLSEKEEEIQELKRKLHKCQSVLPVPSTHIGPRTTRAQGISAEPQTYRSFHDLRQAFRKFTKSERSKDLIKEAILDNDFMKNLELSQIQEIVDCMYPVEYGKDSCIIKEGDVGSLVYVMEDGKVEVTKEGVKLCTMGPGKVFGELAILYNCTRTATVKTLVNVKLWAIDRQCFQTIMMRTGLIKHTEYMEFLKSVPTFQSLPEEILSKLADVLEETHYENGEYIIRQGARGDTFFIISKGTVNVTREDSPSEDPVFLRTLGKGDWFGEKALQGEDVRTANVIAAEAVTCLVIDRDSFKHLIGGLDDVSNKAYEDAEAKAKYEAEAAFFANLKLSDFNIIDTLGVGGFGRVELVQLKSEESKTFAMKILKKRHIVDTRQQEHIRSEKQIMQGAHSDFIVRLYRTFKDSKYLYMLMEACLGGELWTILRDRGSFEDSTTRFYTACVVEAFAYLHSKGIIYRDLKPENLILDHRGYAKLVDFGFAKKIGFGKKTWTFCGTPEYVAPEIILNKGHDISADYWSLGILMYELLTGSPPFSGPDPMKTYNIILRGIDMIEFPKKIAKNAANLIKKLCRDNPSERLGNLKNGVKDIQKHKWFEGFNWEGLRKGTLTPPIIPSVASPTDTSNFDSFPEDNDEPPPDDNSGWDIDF
# [8] = target: Cyclin-dependent kinase 2/cyclin E (Homo sapiens) (UniProt P24864+P24941+O96020); assay: CDK2/cyclinE(h) Eurofins kinase panel; assay type: protein-complex assay; settings: Compound concentration 1.0 uM
# [9] = target: T3, Serine/threonine-protein kinase TBK1 (Homo sapiens) (UniProt Q9UHD2); assay: TBK1(h) Eurofins kinase panel; settings: Compound concentration 1.0 uM
# T3 sequence (whole entry): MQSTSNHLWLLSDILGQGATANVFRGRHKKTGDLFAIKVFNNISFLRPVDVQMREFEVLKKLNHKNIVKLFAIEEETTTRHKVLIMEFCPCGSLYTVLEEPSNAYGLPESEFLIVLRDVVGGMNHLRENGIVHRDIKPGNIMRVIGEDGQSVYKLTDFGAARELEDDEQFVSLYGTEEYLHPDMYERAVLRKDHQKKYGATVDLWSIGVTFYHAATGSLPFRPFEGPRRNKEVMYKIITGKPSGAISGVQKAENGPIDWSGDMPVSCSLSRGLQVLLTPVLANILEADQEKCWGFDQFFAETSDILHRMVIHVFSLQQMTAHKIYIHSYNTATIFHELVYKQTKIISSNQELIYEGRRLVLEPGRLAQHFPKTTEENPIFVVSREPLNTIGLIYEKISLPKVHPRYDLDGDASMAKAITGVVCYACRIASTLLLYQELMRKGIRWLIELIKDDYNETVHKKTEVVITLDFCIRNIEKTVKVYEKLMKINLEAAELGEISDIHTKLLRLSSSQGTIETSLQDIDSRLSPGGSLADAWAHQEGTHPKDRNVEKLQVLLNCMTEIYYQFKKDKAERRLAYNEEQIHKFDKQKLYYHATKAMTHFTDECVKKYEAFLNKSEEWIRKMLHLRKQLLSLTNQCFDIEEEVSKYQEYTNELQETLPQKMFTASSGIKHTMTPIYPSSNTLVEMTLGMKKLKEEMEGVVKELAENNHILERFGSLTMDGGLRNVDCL
# Epithelial discoidin domain-containing receptor 1 (Homo sapiens), sequence (Q08345 whole entry, the tested form may be a part): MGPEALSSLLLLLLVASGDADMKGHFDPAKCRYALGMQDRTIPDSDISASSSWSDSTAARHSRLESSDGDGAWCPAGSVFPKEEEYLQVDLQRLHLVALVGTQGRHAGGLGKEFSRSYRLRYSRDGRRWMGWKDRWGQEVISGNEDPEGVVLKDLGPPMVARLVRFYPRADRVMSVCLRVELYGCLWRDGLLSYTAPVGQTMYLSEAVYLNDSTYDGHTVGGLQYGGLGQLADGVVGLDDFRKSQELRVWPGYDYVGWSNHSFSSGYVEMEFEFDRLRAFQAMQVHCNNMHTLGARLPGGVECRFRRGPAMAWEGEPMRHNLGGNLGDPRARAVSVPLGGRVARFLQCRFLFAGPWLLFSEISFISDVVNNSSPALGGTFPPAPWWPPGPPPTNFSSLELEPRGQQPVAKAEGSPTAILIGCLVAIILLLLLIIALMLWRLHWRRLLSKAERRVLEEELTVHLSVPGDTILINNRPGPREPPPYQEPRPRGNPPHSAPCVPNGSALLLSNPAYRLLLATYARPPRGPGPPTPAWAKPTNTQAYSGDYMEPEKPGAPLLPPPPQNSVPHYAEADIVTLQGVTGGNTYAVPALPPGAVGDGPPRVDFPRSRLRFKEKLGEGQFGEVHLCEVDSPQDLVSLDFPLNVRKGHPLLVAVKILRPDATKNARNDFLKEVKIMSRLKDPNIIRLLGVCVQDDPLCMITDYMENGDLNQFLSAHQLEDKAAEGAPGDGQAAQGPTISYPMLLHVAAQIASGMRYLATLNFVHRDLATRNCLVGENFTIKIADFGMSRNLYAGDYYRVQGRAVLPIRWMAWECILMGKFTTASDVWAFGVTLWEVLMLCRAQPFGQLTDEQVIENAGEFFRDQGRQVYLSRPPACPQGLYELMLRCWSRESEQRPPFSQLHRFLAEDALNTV
# RAF proto-oncogene serine/threonine-protein kinase (Homo sapiens), sequence (P04049 whole entry): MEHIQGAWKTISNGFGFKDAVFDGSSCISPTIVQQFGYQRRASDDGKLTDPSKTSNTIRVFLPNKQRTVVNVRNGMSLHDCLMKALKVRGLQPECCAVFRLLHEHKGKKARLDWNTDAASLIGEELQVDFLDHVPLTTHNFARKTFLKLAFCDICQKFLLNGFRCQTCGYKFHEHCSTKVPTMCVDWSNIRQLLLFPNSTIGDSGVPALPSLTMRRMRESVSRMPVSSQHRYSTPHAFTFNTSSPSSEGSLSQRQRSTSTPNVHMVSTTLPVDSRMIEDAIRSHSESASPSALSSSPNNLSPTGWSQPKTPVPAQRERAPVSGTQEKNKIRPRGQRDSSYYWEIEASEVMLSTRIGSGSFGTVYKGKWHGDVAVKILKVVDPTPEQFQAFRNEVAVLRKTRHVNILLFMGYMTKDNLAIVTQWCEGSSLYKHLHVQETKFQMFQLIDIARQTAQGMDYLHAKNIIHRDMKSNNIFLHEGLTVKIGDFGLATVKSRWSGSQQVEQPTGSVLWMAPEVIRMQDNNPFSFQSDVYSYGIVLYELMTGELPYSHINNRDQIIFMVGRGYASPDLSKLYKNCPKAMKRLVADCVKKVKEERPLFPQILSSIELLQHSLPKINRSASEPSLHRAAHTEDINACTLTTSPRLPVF
# Mitogen-activated protein kinase 8 (Homo sapiens), sequence (P45983 whole entry): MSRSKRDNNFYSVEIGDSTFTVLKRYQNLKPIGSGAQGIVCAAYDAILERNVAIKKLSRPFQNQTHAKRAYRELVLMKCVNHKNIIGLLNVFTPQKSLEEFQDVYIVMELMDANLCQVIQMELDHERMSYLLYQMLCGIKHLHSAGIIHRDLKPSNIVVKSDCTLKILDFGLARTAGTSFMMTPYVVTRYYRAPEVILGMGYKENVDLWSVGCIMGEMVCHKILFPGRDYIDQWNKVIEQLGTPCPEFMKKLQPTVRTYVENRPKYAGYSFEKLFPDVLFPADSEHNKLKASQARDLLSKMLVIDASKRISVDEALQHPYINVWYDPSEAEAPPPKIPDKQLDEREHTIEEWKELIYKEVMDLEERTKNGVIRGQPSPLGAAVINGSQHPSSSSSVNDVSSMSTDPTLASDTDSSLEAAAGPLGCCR
# BDNF/NT-3 growth factors receptor (Homo sapiens), sequence (Q16620 32-822 limits assumed): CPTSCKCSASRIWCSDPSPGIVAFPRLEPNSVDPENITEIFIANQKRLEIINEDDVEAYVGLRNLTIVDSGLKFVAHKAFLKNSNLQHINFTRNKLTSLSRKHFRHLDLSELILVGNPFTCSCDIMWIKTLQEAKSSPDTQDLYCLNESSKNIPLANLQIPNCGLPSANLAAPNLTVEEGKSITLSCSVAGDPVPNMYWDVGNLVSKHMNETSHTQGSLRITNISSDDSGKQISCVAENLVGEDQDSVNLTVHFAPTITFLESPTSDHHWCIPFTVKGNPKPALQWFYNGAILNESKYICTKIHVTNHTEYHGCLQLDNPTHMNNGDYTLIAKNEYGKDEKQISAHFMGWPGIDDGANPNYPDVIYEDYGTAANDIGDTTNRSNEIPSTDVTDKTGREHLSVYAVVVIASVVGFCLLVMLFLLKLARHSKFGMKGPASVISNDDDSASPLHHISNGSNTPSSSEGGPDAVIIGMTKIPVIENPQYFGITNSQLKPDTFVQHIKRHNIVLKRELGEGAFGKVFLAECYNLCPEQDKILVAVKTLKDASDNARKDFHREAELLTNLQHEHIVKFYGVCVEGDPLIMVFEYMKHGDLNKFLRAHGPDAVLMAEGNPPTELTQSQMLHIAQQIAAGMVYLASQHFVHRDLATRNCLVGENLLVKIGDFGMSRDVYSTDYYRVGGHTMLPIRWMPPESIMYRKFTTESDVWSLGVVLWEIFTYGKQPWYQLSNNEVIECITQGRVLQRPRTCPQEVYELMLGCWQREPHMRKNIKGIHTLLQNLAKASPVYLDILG
# Tyrosine-protein kinase JAK2 (Homo sapiens), sequence (O60674 whole entry, the tested form may be a part): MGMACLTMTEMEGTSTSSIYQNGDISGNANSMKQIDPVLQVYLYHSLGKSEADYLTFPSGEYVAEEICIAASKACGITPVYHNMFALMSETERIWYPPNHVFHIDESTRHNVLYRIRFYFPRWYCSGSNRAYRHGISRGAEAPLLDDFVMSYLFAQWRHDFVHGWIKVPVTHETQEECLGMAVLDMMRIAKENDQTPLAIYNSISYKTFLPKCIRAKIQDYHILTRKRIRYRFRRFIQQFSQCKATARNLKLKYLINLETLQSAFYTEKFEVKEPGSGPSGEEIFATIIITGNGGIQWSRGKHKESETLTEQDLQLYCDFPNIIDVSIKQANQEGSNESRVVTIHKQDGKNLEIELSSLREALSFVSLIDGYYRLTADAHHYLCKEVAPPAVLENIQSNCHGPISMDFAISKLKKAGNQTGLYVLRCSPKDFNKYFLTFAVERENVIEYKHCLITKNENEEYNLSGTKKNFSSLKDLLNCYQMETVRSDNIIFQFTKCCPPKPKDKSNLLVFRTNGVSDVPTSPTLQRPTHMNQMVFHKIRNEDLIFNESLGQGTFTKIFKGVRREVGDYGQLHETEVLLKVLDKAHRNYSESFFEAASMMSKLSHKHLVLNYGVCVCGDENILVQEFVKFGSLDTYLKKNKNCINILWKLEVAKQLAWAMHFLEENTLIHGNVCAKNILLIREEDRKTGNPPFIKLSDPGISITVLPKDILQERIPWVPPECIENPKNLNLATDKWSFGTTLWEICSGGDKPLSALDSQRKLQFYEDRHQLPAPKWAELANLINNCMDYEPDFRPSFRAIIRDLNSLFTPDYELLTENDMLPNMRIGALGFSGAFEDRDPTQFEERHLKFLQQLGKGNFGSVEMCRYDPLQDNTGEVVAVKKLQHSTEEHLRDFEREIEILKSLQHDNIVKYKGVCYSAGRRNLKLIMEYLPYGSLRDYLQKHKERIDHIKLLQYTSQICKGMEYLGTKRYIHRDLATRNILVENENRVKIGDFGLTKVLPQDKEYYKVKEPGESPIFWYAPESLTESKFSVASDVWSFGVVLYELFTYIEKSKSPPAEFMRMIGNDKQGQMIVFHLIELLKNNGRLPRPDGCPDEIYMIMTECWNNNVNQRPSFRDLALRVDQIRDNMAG
smiles,measurement,setting,value
CCc1ccccc1C(=O)Nc1n[nH]c2c(C)c(F)c(C3C(C#N)=C(C)N(C)C(C)=C3C#N)cc12 [BAY-3827],% residual kinase activity,[1],103%
same,% residual kinase activity,[2],88%
same,% residual kinase activity,[3],32%
same,% residual kinase activity,[4],72%
same,Cell Proliferation IC50,Ramos,12.1 µM
same,% residual kinase activity,[5],99%
same,% residual kinase activity,[6],98%
same,% residual kinase activity,[7],68%
same,% residual kinase activity,[8],92%
same,% residual kinase activity,[9],106%
